From US4078079A, “Thiocyano-xanthate miticides” (Stauffer Chemical Company, priority 1976, dated 1978)
Values after ≈ are worked out from the molar mass of the structure shown. Where two headings read alike, the source gives them in different places.

Experiments:
[1] = tested on: Two-spotted Mite (2-SM) Tetranychus urticae (Koch) eggs; assay: Plant Dip Assay on Two-Spotted Mite, 2-SM Eggs; type: in vivo; conditions: infested Pinto Bean plants dipped 2-3 seconds, mortality after seven days, nymphs hatching from eggs
Excerpt: (§1) The Two-spotted Mite (2-SM) Tetranychus urticae (Koch) is subjected to evaluation tests for miticidal activity. Plant Dip Assay on Two-Spotted Mite [Tetranychus urticae (Koch)] Pinto Bean plants (Phaseolus sp.) approximately 10 cm tall, are transplanted into sandy loam soil in 3 inch clay pots and thoroughly infested with two-spotted mites of mixed ages and sexes. Twenty-four hours later the infested plants are inverted and dipped for 2-3 seconds in 50-50 acetone-water solutions of the test chemicals. Treated plants are held in the greenhouse, and seven days later mortality is determined for both the adult mites and the nymphs hatching from eggs which were on the plants at the time of treatment. Test concentrations range from 0.05% down to that at which 50% mortality occurs. The values obtained in this test are found in Table VII under the Columns 2SM-PE and 2SM-Eggs.

[2] = tested on: Two-spotted Mite (2-SM) Tetranychus urticae (Koch); assay: Plant Dip Assay on Two-Spotted Mite, 2-SM PE; type: in vivo; conditions: infested Pinto Bean plants dipped 2-3 seconds, mortality after seven days, adult mites
Excerpt: as §1

Aspergillus niger = assay: In Vitro Agar Screening Tests (Example 5); type: cell-based; conditions: A. niger, potato dextrose, 30° C, read-out: Minimum Inhibitory Concentration
Experimental: (§2) This test measures the bactericidal and fungicidal properties of a compound when in contact with growing bacteria or fungi in an artificial medium. The test is conducted by adding 20 ml. portions of a suitable warm sterile agar solution into 20 × 100 Petri dishes. Then, the test compound, in 0.5% acetone solution, is added to the Petri dishes at levels of 1, 5, 10 and 50 ug/ml. and mixed with the warm mobile agar solution. The treated agar mixture is then allowed to come to room temperature and solidify. Cells of the chosen organism are streaked on the surface of the solidified agar and are then incubated for such lengths of time that untreated samples containing no toxicant show luxurious growth typical of the particular organism. This time varies from 24 hours to one week depending on the particular organism. The fungi are incubated at 30° C and the bacteria are incubated at 37° C. Nutrient agar is used as the medium in this test for the bacteria. Potato dextrose is used as the medium for the fungi. The extent of growth is noted at the end of the incubation period.

Staphylococcus aureus = assay: In Vitro Agar Screening Tests (Example 5); type: cell-based; conditions: S. aureus, nutrient agar, 37° C, read-out: Minimum Inhibitory Concentration
Experimental: as §2

Pencillium italicum = assay: In Vitro Agar Screening Tests (Example 5); type: cell-based; conditions: Penicillium italicum, P. italicum, potato dextrose, 30° C, read-out: Minimum Inhibitory Concentration
Experimental: as §2

Escherichia coli = assay: In Vitro Agar Screening Tests (Example 5); type: cell-based; conditions: E. coli, nutrient agar, 37° C, read-out: Minimum Inhibitory Concentration
Experimental: as §2

[3] = partial control at this concentration

Row | Compound | MIC (Aspergillus niger; [3]) [µg/mL] | MIC (Staphylococcus aureus) [µg/mL] | MIC (Pencillium italicum; [3]) [µg/mL] | MIC (Escherichia coli) [µg/mL] | MIC (Aspergillus niger) [µg/mL] | MIC (Pencillium italicum) [µg/mL] | MIC (Escherichia coli; [3]) [µg/mL] | MIC (Staphylococcus aureus; [3]) [µg/mL] | 2-SM Eggs: concentration at which 50% mortality occurs [1] | 2-SM PE: concentration at which 50% mortality occurs [2]
1 | N#CSCSC(=S)OCCOc1ccccc1 [Compound 2] | – | 10 (≈ 35 µM) | – | – | 1 (≈ 3.5 µM) | 0.25 (≈ 0.876 µM) | – | – | – | –
2 | N#CSCSC(=S)OCCOc1ccccc1Cl [Compound 8] | – | 10 (≈ 31.3 µM) | – | – | 5 (≈ 15.6 µM) | 0.5 (≈ 1.56 µM) | – | – | – | .05%
3 | COCCOC(=S)SCSC#N [Compound 3] | – | 50 (≈ 224 µM) | – | 50 (≈ 224 µM) | 5 (≈ 22.4 µM) | 0.5 (≈ 2.24 µM) | – | – | .01% | .01%
4 | N#CSCSC(=S)OCCSc1ccc2ccccc2c1 [Compound 15] | 5 (≈ 14.2 µM) | – | – | > 50 | – | 5 (≈ 14.2 µM) | – | 0.25 (≈ 0.711 µM) | > .05% | > .05%
5 | Cc1ccc(OCCOC(=S)SCSC#N)cc1 [Compound 10] | – | 10 (≈ 33.4 µM) | – | – | 1 (≈ 3.34 µM) | 0.25 (≈ 0.835 µM) | – | – | > .05% | > .05%
6 | COc1ccc(OCCOC(=S)SCSC#N)cc1 [Compound 11] | – | 5 (≈ 15.9 µM) | 0.25 (≈ 0.793 µM) | 25 (≈ 79.3 µM) | 1 (≈ 3.17 µM) | – | – | – | .05% | .05%
7 | CCCCOCCOC(=S)SCSC#N [Compound 6] | – | 5 (≈ 18.8 µM) | – | 50 (≈ 188 µM) | 0.5 (≈ 1.88 µM) | 0.5 (≈ 1.88 µM) | – | – | – | .03%

Now from value to compound, other results behind:

Row | MIC (Aspergillus niger; [3]) [µg/mL] | MIC (Staphylococcus aureus) [µg/mL] | MIC (Pencillium italicum; [3]) [µg/mL] | MIC (Escherichia coli) [µg/mL] | MIC (Aspergillus niger) [µg/mL] | MIC (Pencillium italicum) [µg/mL] | MIC (Escherichia coli; [3]) [µg/mL] | MIC (Staphylococcus aureus; [3]) [µg/mL] | Compound | 2-SM Eggs: concentration at which 50% mortality occurs [1] | 2-SM PE: concentration at which 50% mortality occurs [2]
8 | 1 (≈ 2.98 µM) | < 5 | 1 (≈ 2.98 µM) | > 50 | – | – | – | – | N#CSCSC(=S)OCCSc1ccc(Cl)cc1 [Compound 14] | .003% | .008%
9 | – | 5 (≈ 15.6 µM) | 0.5 (≈ 1.56 µM) | > 50 | 1 (≈ 3.13 µM) | – | – | – | N#CSCSC(=S)OCCOc1ccc(Cl)cc1 [Compound 13] | > .05% | > .05%
10 | – | 5 (≈ 14.1 µM) | – | – | 5 (≈ 14.1 µM) | 5 (≈ 14.1 µM) | – | – | N#CSCSC(=S)OCCOc1ccc(Cl)cc1Cl [Compound 18] | – | –
11 | – | 5 (≈ 16.7 µM) | 0.125 (≈ 0.417 µM) | > 50 | 1 (≈ 3.34 µM) | – | – | – | Cc1ccccc1OCCOC(=S)SCSC#N [Compound 12] | .03% | .01%
12 | 1 (≈ 3.17 µM) | 5 (≈ 15.8 µM) | 0.5 (≈ 1.58 µM) | – | – | – | 50 (≈ 158 µM) | – | Cc1ccc(SCCOC(=S)SCSC#N)cc1 [Compound 17] | > .05% | > .05%
13 | – | 5 (≈ 19.7 µM) | – | 50 (≈ 197 µM) | 5 (≈ 19.7 µM) | 0.5 (≈ 1.97 µM) | – | – | CCSCCOC(=S)SCSC#N [Compound 4] | – | –
14 | – | 5 (≈ 16.2 µM) | – | – | 5 (≈ 16.2 µM) | 5 (≈ 16.2 µM) | – | – | CCCCOCCOCCOC(=S)SCSC#N [Compound 7] | – | .03%
15 | – | 5 (≈ 16.6 µM) | – | – | 1 (≈ 3.32 µM) | 1 (≈ 3.32 µM) | – | – | N#CSCSC(=S)OCCSc1ccccc1 [Compound 9] | > .05% | > .05%
